The source of these data is patent publication US7964609B2, “Use of mGluR5 antagonists for the treatment of gerd” (AstraZeneca AB, priority 2002, dated 2011).

Structures are written as SMILES.

In this experiment the test system is transient lower esophageal sphincter relaxations (TLESRs). The experiment can be described thus: Screening for compounds active against TLESR, Barostat model (air infusion to an intragastric pressure of 10±1 mmHg). It counts as in vivo, Adult Labrador retrievers. Particulars: dose 1 μmol/kg/h, infusion during 60 min. The method, then:
Adult Labrador retrievers of both genders, trained to stand in a Pavlov sling, are used. Mucosa-to-skin esophagostomies are formed and the dogs are allowed to recover completely before any experiments are done. In brief, after fasting for approximately 17 h with free supply of water, a multilumen sleeve/sidehole assembly ([…], Adelaide, South Australia) is introduced through the esophagostomy to measure gastric, lower esophageal sphincter (LES) and esophageal pressures. The assembly is perfused with water using a low-compliance manometric perfusion pump ([…], Adelaide, South Australia). An air-perfused tube is passed in the oral direction to measure swallows, and an antimony electrode monitored pH, 3 cm above the LES. All signals are amplified and acquired on a personal computer at 10 Hz. When a baseline measurement free from fasting gastric/LES phase III motor activity has been obtained, placebo (0.9% NaCl) or test compound is administered intravenously (i.v., 0.5 ml/kg) in a foreleg vein. […] Immediately following the meal, air is insufflated at 40 ml/min. In an alternative model (Barostat model), the infusion of the nutrient meal is followed by air infusion at a rate of 500 ml/min until a intragastric pressure of 10±1 mmHg is obtained. […]

Turning to `N#Cc1cc(F)cc(-c2nc(-c3ccc(F)cn3)no2)c1` [3-fluoro-5-[3-(5-fluoropyridin-2-yl)-1,2,4-oxadiazol-5-yl]benzonitrile], the “% INHIBITION ± SEM (N)” value is 70 ± 4 (3) %.
